From PMC6272155, “Plasmin Regulation through Allosteric, Sulfated, Small Molecules” (Molecules, 2015)
Entries after “also recorded” stand apart in the source; their conditions may differ. Read-outs that look alike come from different tables or passages of the source.

Legend:
Format in all cases: biochemical
[1] = molecular target: T1, human Lys-plasmin (Homo sapiens, UniProt P00747); assay: Direct inhibition of human Lys-plasmin, chromogenic substrate (Spectrozyme PL) hydrolysis assay; details: for IC50: human plasmin 20 nM, 50 mM Tris-HCl pH 7.4, 150 mM NaCl, 37 °C, Spectrozyme PL
T1 construct: purchased Haematologic Technologies (Essex Junction, VT, USA)
T1 sequence (P00747 581-810 limits assumed): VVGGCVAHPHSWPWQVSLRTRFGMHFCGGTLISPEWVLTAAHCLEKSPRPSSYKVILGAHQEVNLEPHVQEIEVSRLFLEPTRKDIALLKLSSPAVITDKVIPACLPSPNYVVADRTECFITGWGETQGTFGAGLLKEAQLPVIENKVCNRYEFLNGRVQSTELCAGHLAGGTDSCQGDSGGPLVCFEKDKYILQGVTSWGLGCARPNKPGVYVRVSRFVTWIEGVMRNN
T1 sequence (P00747 97-580 partner limits assumed): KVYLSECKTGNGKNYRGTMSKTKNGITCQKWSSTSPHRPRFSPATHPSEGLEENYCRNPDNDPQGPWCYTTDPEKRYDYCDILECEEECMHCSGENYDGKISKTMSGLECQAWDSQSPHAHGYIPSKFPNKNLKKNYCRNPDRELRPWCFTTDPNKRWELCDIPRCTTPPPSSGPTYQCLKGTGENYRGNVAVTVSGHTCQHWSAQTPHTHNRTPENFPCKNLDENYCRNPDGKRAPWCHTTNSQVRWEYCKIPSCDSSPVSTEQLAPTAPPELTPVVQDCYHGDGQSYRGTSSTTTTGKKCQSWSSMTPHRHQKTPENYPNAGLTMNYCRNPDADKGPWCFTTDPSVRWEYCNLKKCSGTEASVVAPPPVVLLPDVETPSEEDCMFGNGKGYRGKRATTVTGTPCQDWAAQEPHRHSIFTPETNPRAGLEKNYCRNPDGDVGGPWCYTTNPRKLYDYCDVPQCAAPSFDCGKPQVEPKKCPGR
Procedure: Important to emphasize here that the potency of NSGM-based inhibitors was evaluated by measuring their IC50's (X-axis), whereas the efficacy was assessed by measuring the overall change in residual plasmin activity (%) (ΔY = YM − Y0) (Y-axis).
Direct inhibition of human Lys-plasmin was measured using a chromogenic substrate hydrolysis assay on a microplate reader (FlexStation III, Molecular Devices, Sunnyvale, CA, USA), as reported earlier. Briefly, to each well of a 96-well microplate containing 85 µL of 50 mM Tris-HCl buffer, pH 7.4, containing 150 mM NaCl, 0.1% PEG8000, and 0.02% Tween80 at 37 °C was added 5 µL potential NSGM-based inhibitor (20–100 mM aqueous solution) (or vehicle alone) and 5 µL enzyme. The final concentration of the enzyme was 20 nM. After 5 min incubation, 5 µL of 1 mM Spectrozyme PL was rapidly added and the residual enzyme activity was measured from the initial rate of increase in A405. Relative residual enzyme activity (Y) as a function of the concentration of sulfated molecule was fitted using logistic equation 1 to obtain the potency (IC50), efficacy (ΔY) and Hill slope (HS) of inhibition. In this equation, YM and Y0 are the maximal and minimal values of Y: (1) Y = Y0+YM−Y0/1+10^(log[Inhibitor]0 − logIC50) ×HS […]
In this equation, Y is the ratio of residual plasmin activity in the presence of inhibitor to that in its absence (fractional residual activity). YM and Y0 are the maximum and minimum possible values of the fractional residual proteinase activity. The difference between these two values is used to evaluate the inhibitor’s efficacy to reduce the residual enzyme activity under the assay condition.
Direct inhibition of human plasmin by sulfated small molecules. Direct inhibition of plasmin was measured using a chromogenic substrate hydrolysis assay on a microplate reader (FlexStation III, Molecular Devices), as reported earlier. Briefly, to each well of a 96-well microplate containing […]
Tween80 at 37 °C was added 5 µL potential inhibitor (or vehicle alone) and 5 µL enzyme. The final concentration of the enzyme was 20 nM. After 5 min incubation, 5 µL of 1 mM Spectrozyme PL was rapidly added and the residual enzyme activity was measured from the initial rate of increase in A405.
Relative residual enzyme activity (Y, activity in the presence of inhibitor to that in its absence) as a function of the concentration of SPGG derivative was fitted using logistic Equation (1) to obtain the potency (IC50), efficacy (ΔY) and Hill slope (HS) of inhibition. In this equation, YM and Y0 are the maximal and minimal values of Y.

[2] = molecular target: thrombin (Homo sapiens, UniProt P00734); assay: Direct inhibition of thrombin, chromogenic substrate (Spectrozyme TH) hydrolysis assay; details: pH 7.4, 37 °C; read-out: IC50 against thrombin
Procedure: (§1) The rationale behind targeting an allosteric site on plasmin was to achieve inhibition specificity over the closely related serine proteases. In contrast to active sites, allosteric sites are not as highly conserved and therefore present a powerful opportunity for discovering a selective modulator of enzyme function. […] Using appropriate small peptide-based chromogenic substrates, the fractional residual thrombin and factor Xa activities were measured under the physiological condition of pH 7.4 and 37 °C.
(§2) Briefly, to each well of a 96-well microplate containing 185 μL of 20–50 mM Tris-HCl buffer, pH 7.4, containing 100–150 mM NaCl, 0.1% PEG8000 and 0.02% Tween80 at either 25 °C (thrombin) or 37 °C (factor Xa) was added 5 μL of 10–20 mM inhibitor (or vehicle) and 5 μL of the enzyme. The final concentrations of the enzymes were 6 nM (thrombin) and 1.09 nM (factor Xa). After 10 min incubation, 5 μL 1.0 mM Spectrozyme TH or 2.5 mM Spectrozyme FXa, was rapidly added and the residual enzyme activity was measured from the initial rate of increase in A405. Relative residual enzyme activity (Y, activity in the presence of inhibitor to that in its absence) as a function of the concentration of inhibitor was measured.

[3] = molecular target: factor Xa (Homo sapiens, UniProt P00742); assay: Direct inhibition of factor Xa, chromogenic substrate (Spectrozyme FXa) hydrolysis assay; details: for IC50: pH 7.4, 37 °C, read-out: IC50 against factor Xa
Sequence of factor Xa (P00742 235-488 limits assumed): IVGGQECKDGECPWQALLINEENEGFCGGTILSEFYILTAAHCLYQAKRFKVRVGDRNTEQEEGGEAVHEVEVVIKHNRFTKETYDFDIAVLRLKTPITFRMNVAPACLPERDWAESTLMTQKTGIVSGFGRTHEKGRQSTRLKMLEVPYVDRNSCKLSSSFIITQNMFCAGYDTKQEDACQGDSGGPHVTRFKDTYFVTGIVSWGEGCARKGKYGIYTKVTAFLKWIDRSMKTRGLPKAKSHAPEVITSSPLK
Sequence of factor Xa (P00742 41-179 partner limits assumed): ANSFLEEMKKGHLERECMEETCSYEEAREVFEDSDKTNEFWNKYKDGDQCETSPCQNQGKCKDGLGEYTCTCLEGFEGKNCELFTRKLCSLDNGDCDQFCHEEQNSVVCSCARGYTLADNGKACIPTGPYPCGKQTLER
Procedure: as §1, §2

[4] = molecular target: T2, human plasmin (Homo sapiens, UniProt P00747); assay: Michaelis-Menten kinetics of Spectrozyme PL hydrolysis by human plasmin in presence of inhibitor; details: for mechanism of plasmin inhibition: Michaelis-Menten kinetics, pH 7.4, 37 °C
T2 construct: purchased Haematologic Technologies (Essex Junction, VT, USA)
T2 sequence (P00747 581-810 limits assumed): as the sequence (P00747 581-810 limits assumed) above
T2 sequence (P00747 97-580 partner limits assumed): as the sequence (P00747 97-580 partner limits assumed) above
Procedure: The initial rate of Spectrozyme PL hydrolysis by human plasmin (20 nM) was monitored from the linear increase in absorbance at 405 nm corresponding to less than 10% consumption of the substrate. […] The data were fitted by Michaelis-Menten Equation (2) to determine KM,app and VMAX: (2) V= VMAX [S]/KM+ [S] […]
Michaelis-Menten kinetics of Spectrozyme PL hydrolysis by plasmin in the presence of […]
The initial rate of Spectrozyme PL hydrolysis by human plasmin (20 nM) was monitored from the linear increase in absorbance at 405 nm corresponding to less than 10% consumption of the substrate. The initial rate was measured as a function of various concentrations of the substrate (0–400 μM) […]
50 mM Tris-HCl buffer, pH 7.4, 150 mM NaCl at 37 °C. The data were fitted by Michaelis-Menten Equation (2) to determine KM,app and VMAX. […]

[5] = pH 7.4, read-out: ΔY% (efficacy, YM − Y0), logistic fit, pH 7.4, 37 °C
[6] = pH 7.4, logistic fit, pH 7.4, 37 °C, read-out: ΔY% (efficacy, YM − Y0)

| SMILES | IC50 [1] | HS (Hill slope) ([1]; logistic fit, pH 7.4, 37 °C) | Emax [1, 5] | IC50 [2] | selectivity index for plasmin over factor Xa [3] | IC50 [3] | mechanism of plasmin inhibition [4] | VMAX of Spectrozyme PL hydrolysis ([4]; inhibitor 150 μM) | Emax [1, 6] | also measured |
| --- | --- | --- | --- | --- | --- | --- | --- | --- | --- | --- |
| O=c1c(OS(=O)(=O)O)c(-c2ccc(OS(=O)(=O)O)c(OS(=O)(=O)O)c2)oc2cc(OS(=O)(=O)O)cc(OCc3cn(CCCCCCCn4c(-c5ccc(OS(=O)(=O)O)cc5)nc5ccccc5c4=O)nn3)c12 [compound 31, 3-(8-(4-((2-(3,4-O,O-Disulfonato-phenyl)-3,7-O,O-disulfonato-4-oxo-4H-chromen-5-yloxy)methyl)-1H-1,2,3-triazol-1-yl)heptyl)-2-(4-O-sulfonato-phenyl)quinazolin-4(3H)-one] | 56 ± 2 µM | 3.2 ± 0.8 | 87% | > 500 µM | about 5 fold | > 250 µM |  |  |  | ΔY% (efficacy, YM − Y0) ([1]; logistic fit, pH 7.4, 37 °C): 87 ± 4% |
| O=c1c(OS(=O)(=O)O)c(-c2ccc(OS(=O)(=O)O)c(OS(=O)(=O)O)c2)oc2cc(OS(=O)(=O)O)cc(OCc3cn(CCCCCCCCn4c(-c5ccc(OS(=O)(=O)O)cc5)nc5ccccc5c4=O)nn3)c12 [compound 32, 3-(8-(4-((2-(3,4-O,O-Disulfonato-phenyl)-3,7-O,O-disulfonato-4-oxo-4H-chromen-5-yloxy)methyl)-1H-1,2,3-triazol-1-yl)octyl)-2-(4-O-sulfonato-phenyl)quinazolin-4(3H)-one] | 45 ± 2 µM | 2.3 ± 0.7 | 105% | > 500 µM | about 5 fold | > 250 µM | noncompetitive inhibition; also recorded: allosteric inhibitor | 20.7 ± 1.1 mAU/min |  | decrease in VMAX ([4]; inhibitor 0 to 250 μM): 5.5 fold; VMAX of Spectrozyme PL hydrolysis ([4]; inhibitor 1 μM): 65.8 ± 2.1 mAU/min; VMAX of Spectrozyme PL hydrolysis ([4]; inhibitor 10 μM): 56.4 ± 2.3 mAU/min; VMAX of Spectrozyme PL hydrolysis ([4]; inhibitor 50 μM): 41.4 ± 1.6 mAU/min; VMAX of Spectrozyme PL hydrolysis ([4]; inhibitor 250 μM): 12.5 ± 1.3 mAU/min |
| O=c1c(OS(=O)(=O)O)c(-c2ccc(OS(=O)(=O)O)c(OS(=O)(=O)O)c2)oc2cc(OS(=O)(=O)O)cc(OCCCCOc3cc(OS(=O)(=O)O)cc4oc(-c5ccc(OS(=O)(=O)O)c(OS(=O)(=O)O)c5)c(OS(=O)(=O)O)c(=O)c34)c12 [compound 52, 5,5'-(Butane-1,4-diylbis(oxy))bis(2-(3,4-O,O-disulfonato-phenyl)-3,7-O,O-disulfonato-4H-chromen-4-one)] | 76 ± 12 µM | 1.0 ± 0.2 |  | > 500 µM | about 5 fold | > 250 µM | uncompetitive inhibition | 26.4 ± 0.8 mAU/min | 72% | decrease in KM relative to absence of inhibitor ([4]; inhibitor 0 to 150 μM): approximately 3.5 fold; VMAX of Spectrozyme PL hydrolysis ([4]; inhibitor 15 μM): 52.9 ± 2.9 mAU/min; VMAX of Spectrozyme PL hydrolysis ([4]; inhibitor 30 μM): 37.0 ± 1.5 mAU/min; VMAX of Spectrozyme PL hydrolysis ([4]; inhibitor 75 μM): 34.8 ± 1.5 mAU/min |
| O=c1c(OS(=O)(=O)O)c(-c2ccc(OS(=O)(=O)O)c(OS(=O)(=O)O)c2)oc2cc(OS(=O)(=O)O)cc(OCCCCCOc3cc(OS(=O)(=O)O)cc4oc(-c5ccc(OS(=O)(=O)O)c(OS(=O)(=O)O)c5)c(OS(=O)(=O)O)c(=O)c34)c12 [compound 53] | 209 ± 25 µM | 0.6 ± 0.1 |  |  |  |  |  |  | 105 ± 8% | loss in potency relative to 4-atom linker flavonoid homodimers (52, 54) [1]: 3 fold; inhibition at 400 µM ([1]; 400 μM inhibitor, pH 7.4, 37 °C, n ≥ 2, read-out: plasmin inhibition in initial screening): > 90% |
